Test results: the NIST ThermoML archive (doi:10.1021/acs.jced.8b00132)
Where “and” joins values, the source holds several entries; their conditions need not be identical. Equal entries are not always repeated.

O=C(C(F)(F)C(F)(F)F)C(F)(C(F)(F)F)C(F)(F)F [dodecafluoro-2-methylpentan-3-one]
Details	thermal conductivity
402.37 K, 306 kPa, Gas, hot wire	0.0201 W/m/K
402.38 K, 27 kPa, Gas, hot wire	0.01858 W/m/K
402.38 K, 306 kPa, Gas, hot wire	0.02016 W/m/K
402.44 K, 159 kPa, Gas, hot wire	0.01917 W/m/K and 0.01915 W/m/K
402.45 K, 445 kPa, Gas, hot wire	0.02064 W/m/K
402.47 K, 444 kPa, Gas, hot wire	0.02039 W/m/K
402.49 K, 306 kPa, Gas, hot wire	0.02022 W/m/K and 0.02027 W/m/K
402.5 K, 27 kPa, Gas, hot wire	0.01866 W/m/K and 0.01864 W/m/K
402.57 K, 160 kPa, Gas, hot wire	0.01916 W/m/K
402.57 K, 161 kPa, Gas, hot wire	0.0192 W/m/K
402.57 K, 444 kPa, Gas, hot wire	0.02075 W/m/K
402.59 K, 443 kPa, Gas, hot wire	0.02053 W/m/K
402.62 K, 305 kPa, Gas, hot wire	0.02031 W/m/K and 0.02029 W/m/K
402.63 K, 27 kPa, Gas, hot wire	0.01867 W/m/K
402.64 K, 27 kPa, Gas, hot wire	0.01862 W/m/K
402.68 K, 835 kPa, Gas, transient hot wire	0.02013 W/m/K
402.69 K, 441 kPa, Gas, hot wire	0.02089 W/m/K
402.69 K, 442 kPa, Gas, hot wire	0.02089 W/m/K
402.69 K, 835 kPa, Gas, transient hot wire	0.02007 W/m/K
402.71 K, 162 kPa, Gas, hot wire	0.01917 W/m/K
402.71 K, 163 kPa, Gas, hot wire	0.01926 W/m/K
402.74 K, 305 kPa, Gas, hot wire	0.02049 W/m/K
402.74 K, 747 kPa, Gas, transient hot wire	0.01986 W/m/K
402.74 K, 748 kPa, Gas, transient hot wire	0.01986 W/m/K
402.75 K, 305 kPa, Gas, hot wire	0.02035 W/m/K
402.78 K, 27 kPa, Gas, hot wire	0.01867 W/m/K and 0.01858 W/m/K
402.81 K, 608 kPa, Gas, transient hot wire	0.01959 W/m/K
402.81 K, 609 kPa, Gas, transient hot wire	0.01955 W/m/K
402.85 K, 164 kPa, Gas, hot wire	0.01925 W/m/K and 0.01927 W/m/K
402.87 K, 447 kPa, Gas, transient hot wire	0.01955 W/m/K
402.87 K, 448 kPa, Gas, transient hot wire	0.01962 W/m/K
402.87 K, 836 kPa, Gas, transient hot wire	0.02025 W/m/K
402.88 K, 836 kPa, Gas, transient hot wire	0.0203 W/m/K
402.91 K, 746 kPa, Gas, transient hot wire	0.01994 W/m/K
402.92 K, 307 kPa, Gas, transient hot wire	0.01967 W/m/K
402.92 K, 746 kPa, Gas, transient hot wire	0.01998 W/m/K
402.93 K, 27 kPa, Gas, hot wire	0.01857 W/m/K and 0.01866 W/m/K
403 K, 607 kPa, Gas, transient hot wire	0.01962 W/m/K and 0.01975 W/m/K
403.05 K, 836 kPa, Gas, transient hot wire	0.02051 W/m/K
403.06 K, 836 kPa, Gas, transient hot wire	0.02049 W/m/K
403.07 K, 447 kPa, Gas, transient hot wire	0.01962 W/m/K
403.08 K, 446 kPa, Gas, transient hot wire	0.01959 W/m/K
403.1 K, 744 kPa, Gas, transient hot wire	0.02004 W/m/K
403.1 K, 745 kPa, Gas, transient hot wire	0.02014 W/m/K
403.12 K, 306 kPa, Gas, transient hot wire	0.01974 W/m/K
403.12 K, 307 kPa, Gas, transient hot wire	0.01974 W/m/K
403.2 K, 605 kPa, Gas, transient hot wire	0.01971 W/m/K
403.21 K, 606 kPa, Gas, transient hot wire	0.01981 W/m/K
403.25 K, 836 kPa, Gas, transient hot wire	0.02071 W/m/K
403.25 K, 837 kPa, Gas, transient hot wire	0.02072 W/m/K
403.28 K, 445 kPa, Gas, transient hot wire	0.01961 W/m/K
403.3 K, 445 kPa, Gas, transient hot wire	0.01958 W/m/K
403.33 K, 744 kPa, Gas, transient hot wire	0.02022 W/m/K
403.34 K, 306 kPa, Gas, transient hot wire	0.01976 W/m/K
403.34 K, 743 kPa, Gas, transient hot wire	0.02024 W/m/K
403.35 K, 306 kPa, Gas, transient hot wire	0.01972 W/m/K
403.41 K, 605 kPa, Gas, transient hot wire	0.01984 W/m/K
403.42 K, 604 kPa, Gas, transient hot wire	0.01984 W/m/K
403.51 K, 444 kPa, Gas, transient hot wire	0.01967 W/m/K
403.53 K, 742 kPa, Gas, transient hot wire	0.02037 W/m/K and 0.02041 W/m/K
403.54 K, 443 kPa, Gas, transient hot wire	0.01965 W/m/K
403.57 K, 305 kPa, Gas, transient hot wire	0.01974 W/m/K and 0.01978 W/m/K
403.63 K, 603 kPa, Gas, transient hot wire	0.01991 W/m/K
403.64 K, 602 kPa, Gas, transient hot wire	0.01991 W/m/K
403.75 K, 442 kPa, Gas, transient hot wire	0.01972 W/m/K
403.76 K, 442 kPa, Gas, transient hot wire	0.01971 W/m/K
403.81 K, 305 kPa, Gas, transient hot wire	0.01987 W/m/K and 0.01988 W/m/K
416.35 K, 1171 kPa, Liquid, transient hot wire	0.03902 W/m/K and 0.03885 W/m/K
416.51 K, 1171 kPa, Liquid, transient hot wire	0.03892 W/m/K and 0.03904 W/m/K
416.67 K, 1170 kPa, Liquid, transient hot wire	0.03901 W/m/K
416.68 K, 1170 kPa, Liquid, transient hot wire	0.0389 W/m/K
416.69 K, 596 kPa, Gas, hot wire	0.0223 W/m/K
416.7 K, 595 kPa, Gas, hot wire	0.02228 W/m/K
416.78 K, 2205 kPa, Liquid, transient hot wire	0.04062 W/m/K
416.79 K, 2206 kPa, Liquid, transient hot wire	0.04049 W/m/K
416.8 K, 24840 kPa, Liquid, transient hot wire	0.05568 W/m/K
416.81 K, 24844 kPa, Liquid, transient hot wire	0.05562 W/m/K
416.81 K, 50957 kPa, Liquid, transient hot wire	0.06585 W/m/K
416.82 K, 50950 kPa, Liquid, transient hot wire	0.06577 W/m/K
416.86 K, 1170 kPa, Liquid, transient hot wire	0.03904 W/m/K
416.87 K, 1131 kPa, Gas, transient hot wire	0.02258 W/m/K
416.87 K, 1170 kPa, Liquid, transient hot wire	0.03905 W/m/K
416.88 K, 16295 kPa, Liquid, transient hot wire	0.0514 W/m/K
416.89 K, 590 kPa, Gas, hot wire	0.02234 W/m/K
